According to US11497737B2, “Pharmaceutical compositions of albumin and rapamycin” (Abraxis BioScience, LLC, priority 2019, dated 2022):
≈ marks a conversion by molar mass, not a printed value.

Experiments:
[1] = Solubility of rapamycin in reconstituted suspension by light scattering; assay type: physicochemical; settings: saline or isotonic; reconstituted suspension of the pharmaceutical composition in 0.9% saline; mean±95% CI
Experimental: The change in intensity of light scattering in diluted samples of the reconstituted suspension of the pharmaceutical composition was used as a measure to determine the in vitro dissolution or disintegration of the nanoparticles, which implicates the release of rapamycin from the nanoparticles of the pharmaceutical composition. The percent of rapamycin released at any given time was determined using the light scattering intensity at zero time and at time t. The intensity of light scattering, measured by the Malvern Zetasizer Nano, is relative to the number of nanoparticles present in the pharmaceutical composition. […] If the release of rapamycin from the nanoparticles is controlled by the solubility limit and the reconstituted suspension is diluted to a concentration within the solubility range, then the nanoparticles should rapidly dissolve, causing the rapamycin to be readily released from the nanoparticles of the pharmaceutical composition, and the light scattering intensity will approach zero.
When the suspensions were diluted to concentrations above the rapamycin solubility, the nanoparticles only partially disintegrated and dissolved, and light scattering was observed. […] The solubility of rapamycin was determined as the concentration at which the intensity of the scattered light begins to increase linearly.

[2] = Rapamycin solubility from light scattering intensity of diluted reconstituted nanoparticle suspension; assay type: physicochemical; settings: saline or isotonic; in 0.9% saline solution; from light scattering intensity vs rapamycin concentration of reconstituted albumin-rapamycin nanoparticle suspension; read-out: solubility point of rapamycin
Experimental: FIG. 5 depicts light scattering intensity (kcps) as a function of rapamycin concentration from a reconstituted suspension of the pharmaceutical composition comprising nanoparticles comprising rapamycin and albumin. When the suspensions were diluted to concentrations below the rapamycin solubility, the nanoparticles completely disintegrated and dissolved (see left 7-8 data points on graph). However, when the suspensions were diluted to concentrations above the rapamycin solubility, the nanoparticles only partially disintegrated and dissolved, and light scattering was observed (see right 4-5 data points on graph).
The albumin-based rapamycin nanoparticle compositions described herein in some embodiments have a particular in vitro release kinetic behavior. […] In this assay, the particle size and intensity of light scattered by the particles are measured by DLS over time following a reduction in particle concentration. In some embodiments, the release kinetics are determined by diluting the pharmaceutical composition in a 0.9% saline solution. In some embodiments, the release kinetics are determined by diluting the pharmaceutical composition in a 5% human albumin solution.
In some embodiments, the in vitro release is determined using the dynamic light scattering method. […] In some embodiments, the intensity of light scattered is measured at a scattering angle of 173°.

- solubility [1]: 16.1 ± 1.8 µg/mL (≈ 17.6 µM)
- solubility [2]: 16.1 ± 1.8 µg/mL (≈ 17.6 µM)
Structure (SMILES): CO[C@H]1C[C@@H]2CC[C@@H](C)[C@@](O)(O2)C(=O)C(=O)N2CCCC[C@H]2C(=O)O[C@H]([C@H](C)C[C@@H]2CC[C@@H](O)[C@H](OC)C2)CC(=O)[C@H](C)/C=C(\C)[C@@H](O)[C@@H](OC)C(=O)[C@H](C)C[C@H](C)/C=C/C=C/C=C/1C [rapamycin]
